Measured values published in US10457703B2, “Bile acid derivatives as FXR/TGR5 agonists and methods of use thereof” (ENANTA PHARMACEUTICALS, INC., priority 2015, dated 2019).

Target: human FXR (NR1H4) (Homo sapiens (Human), UniProt Q96RI1)
Assay: Human FXR (NR1H4) Assay (Gal4 promoter driven luciferase reporter, Indigo Bioscience kit);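 on Efficacy (%): 100% equals the efficacy of CDCA; efficacy normalized to CDCA set as 100%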
Assay type: cell-based
Settings: for EC50: Human FXR (NR1H4) Assay, potency ranges; for Emax: read-out: Efficacy (%)
Summary of the method: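 CHO reporter cells expressing human FXR with an FXR-responsive luciferase reporter, treated with compound doses at 0.2% DMSO. Incubation lasted 22 h at 37 °C before luciferase detection reagent was added. Luminescence was then read.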

Sequence of human FXR (NR1H4) (Q96RI1 whole entry, the tested form may be a part): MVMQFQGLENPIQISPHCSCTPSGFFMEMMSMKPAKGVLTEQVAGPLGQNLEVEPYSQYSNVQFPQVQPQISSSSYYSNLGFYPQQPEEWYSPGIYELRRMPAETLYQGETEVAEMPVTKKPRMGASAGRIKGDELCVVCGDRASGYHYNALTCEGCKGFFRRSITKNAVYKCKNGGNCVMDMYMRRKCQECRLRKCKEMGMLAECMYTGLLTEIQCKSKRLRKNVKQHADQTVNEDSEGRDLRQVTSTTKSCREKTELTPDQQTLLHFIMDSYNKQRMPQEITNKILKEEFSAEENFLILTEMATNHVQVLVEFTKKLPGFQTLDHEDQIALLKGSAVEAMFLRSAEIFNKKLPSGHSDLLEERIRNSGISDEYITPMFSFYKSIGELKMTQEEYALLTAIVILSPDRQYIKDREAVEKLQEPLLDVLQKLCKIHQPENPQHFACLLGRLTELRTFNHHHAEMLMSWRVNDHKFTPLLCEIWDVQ

| Compound | EC50 [µM] | Emax [%] |
| --- | --- | --- |
| CC[C@H]1[C@@H](O)[C@@H]2[C@H](CC[C@]3(C)[C@@H]([C@H](C)COC(=O)NS(=O)(=O)c4ccc(N5CCOCC5)nc4)CC[C@@H]23)[C@@]2(C)CC[C@@H](O)C[C@@H]12 [Example 15] | < 0.1 | 197 |
| CC[C@H]1[C@@H](O)[C@@H]2[C@H](CC[C@]3(C)[C@@H]([C@H](C)COC(=O)NCc4ccccc4)CC[C@@H]23)[C@@]2(C)CC[C@@H](O)C[C@@H]12 [Example 205] | 1 to 10 | 5 |
| CC[C@H]1[C@@H](O)[C@@H]2[C@H](CC[C@]3(C)[C@@H]([C@H](C)CCOC(=O)NC4CCCCCC4)CC[C@@H]23)[C@@]2(C)CC[C@@H](O)C[C@@H]12 [Example 138] | 0.1 to 1 | 297 |
| CC[C@H]1[C@@H](O)[C@@H]2[C@H](CC[C@]3(C)[C@@H]([C@H](C)CCCOC(=O)NS(=O)(=O)c4ccc(C)cc4)CC[C@@H]23)[C@@]2(C)CC[C@@H](O)C[C@@H]12 [Example 1] | 0.1 to 1 | 422 |
